Measurements as given in US20080306076A1, “MODULATION OF CHEMOSENSORY RECEPTORS AND LIGANDS ASSOCIATED THEREWITH” (SENOMYX, INC., priority 2007, published 2008).
Numbering of substitutions follows the chain as printed.

Experiments:
hT1R1 S172A = biological target: T1, hT1R1 S172A (Homo sapiens, UniProt Q7RTX1, S172A); test: Mutagenesis study, hT1R1 mutant S172A; type: cell-based; conditions: S172 mutant, FIG. 11
T1 construct: expressed in transfected cells; host or cells: HEK293, transient transfection
T1 sequence (Q7RTX1 21-841 S172A): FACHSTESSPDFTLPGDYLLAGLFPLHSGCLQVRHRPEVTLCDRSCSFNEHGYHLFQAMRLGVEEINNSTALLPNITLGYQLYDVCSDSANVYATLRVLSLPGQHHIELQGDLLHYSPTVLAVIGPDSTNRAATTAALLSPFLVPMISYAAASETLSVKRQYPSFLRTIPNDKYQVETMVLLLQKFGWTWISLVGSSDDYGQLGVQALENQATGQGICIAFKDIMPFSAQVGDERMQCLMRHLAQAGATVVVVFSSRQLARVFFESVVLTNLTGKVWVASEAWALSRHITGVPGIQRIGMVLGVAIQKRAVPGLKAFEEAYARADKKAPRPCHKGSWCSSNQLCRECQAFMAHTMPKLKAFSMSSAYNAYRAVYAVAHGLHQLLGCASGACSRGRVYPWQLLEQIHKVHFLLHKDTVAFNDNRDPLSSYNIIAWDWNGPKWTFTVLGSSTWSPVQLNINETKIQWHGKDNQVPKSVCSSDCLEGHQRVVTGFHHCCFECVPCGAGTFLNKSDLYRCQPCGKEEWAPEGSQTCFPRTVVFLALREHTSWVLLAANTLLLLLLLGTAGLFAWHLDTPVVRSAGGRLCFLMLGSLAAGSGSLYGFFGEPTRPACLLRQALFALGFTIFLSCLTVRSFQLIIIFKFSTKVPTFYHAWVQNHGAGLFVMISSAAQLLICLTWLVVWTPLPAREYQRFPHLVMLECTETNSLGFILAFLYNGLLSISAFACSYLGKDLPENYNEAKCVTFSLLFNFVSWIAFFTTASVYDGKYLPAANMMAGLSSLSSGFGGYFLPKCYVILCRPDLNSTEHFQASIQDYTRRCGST
T1 sequence (Q923K1 21-858 partner): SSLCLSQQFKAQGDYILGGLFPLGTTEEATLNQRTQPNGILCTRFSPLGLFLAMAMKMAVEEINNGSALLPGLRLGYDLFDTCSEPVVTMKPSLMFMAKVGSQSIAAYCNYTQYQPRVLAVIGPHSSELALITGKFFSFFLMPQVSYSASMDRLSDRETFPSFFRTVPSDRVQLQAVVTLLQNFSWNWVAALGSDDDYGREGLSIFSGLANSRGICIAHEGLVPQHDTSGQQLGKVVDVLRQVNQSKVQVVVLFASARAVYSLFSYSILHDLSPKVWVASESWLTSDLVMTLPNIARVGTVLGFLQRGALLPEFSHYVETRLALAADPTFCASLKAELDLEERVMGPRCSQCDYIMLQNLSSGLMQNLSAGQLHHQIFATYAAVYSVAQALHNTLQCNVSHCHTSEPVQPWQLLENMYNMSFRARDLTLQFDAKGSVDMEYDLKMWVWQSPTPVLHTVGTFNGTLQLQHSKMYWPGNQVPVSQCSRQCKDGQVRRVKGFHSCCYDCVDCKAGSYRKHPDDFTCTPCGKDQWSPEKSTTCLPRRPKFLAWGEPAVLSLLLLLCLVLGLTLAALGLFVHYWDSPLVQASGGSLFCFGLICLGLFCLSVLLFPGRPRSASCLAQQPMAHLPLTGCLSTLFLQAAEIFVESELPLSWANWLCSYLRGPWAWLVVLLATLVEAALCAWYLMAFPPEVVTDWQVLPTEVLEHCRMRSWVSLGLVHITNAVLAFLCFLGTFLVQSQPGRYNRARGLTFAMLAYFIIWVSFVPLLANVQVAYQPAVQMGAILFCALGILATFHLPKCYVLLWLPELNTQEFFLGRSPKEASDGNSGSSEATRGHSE
Source text: (§1) In order to further define the interaction sites of umami stimuli, we performed site-directed mutagenesis on human T1R1 VFT. The mutagenesis was done using the routine PCR-based method. […] were transiently transfected into HEK293 cell together with the rat T1R3 wild type cDNA, and the transfected cells were characterized using an automated FLIPR machine or a calcium imaging system as described in our previous patent applications.

hT1R1 H308A = biological target: T2, hT1R1 H308A (Homo sapiens, UniProt Q7RTX1, H308A); test: Mutagenesis study, hT1R1 mutant H308A; type: cell-based; conditions: H308 mutation
T2 construct: expressed in transfected cells; host or cells: HEK293, transient transfection
T2 sequence (Q7RTX1 21-841 H308A): T1 sequence (Q7RTX1 21-841 S172A) with A152S, H288A
T2 sequence (Q923K1 21-858 partner): T1 sequence (Q923K1 21-858 partner)
Source text: as §1

SMILES | activity against L-Glu (hT1R1 S172A) | enhancement activity of GMP (hT1R1 H308A)
N[C@@H](CCC(=O)O)C(=O)O [L-Glu, L-glutamate] | significant reduced activity | –
Nc1nc2c(ncn2[C@@H]2O[C@H](COP(=O)(O)O)[C@@H](O)[C@H]2O)c(=O)[nH]1 [GMP, guanosine-5′-monophosphate] | – | similarly affected
